This is an account of results in US7196110B2, “N-substituted tricyclic 3-aminopyrazoles as inhibitors for the treatment of cell proliferative disorders” (Janssen Phamaceutica N.V., priority 2002, dated 2007).

The test has as its target T1, PDGF-receptor beta enzyme comprising the tyrosine kinase domain (Homo sapiens, UniProt P09619).
T1 construct: from amino acid 545 to 1106 of GenBank Access NO: AAA36427
The experiment in a line: Inhibition of PDGF-receptor kinase activity (cell-free, PLC1 peptide, 33P Flashplate). The format is biochemical. The settings on record: for inhibition at 10 µM: read-out: Percent Inhibition @ 10 uM. Summed up:
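The IC50 is the inhibitor level halving kinase activity relative to inhibitor-free wells, measured as 33P captured on a streptavidin-bound biotin-PLC1 peptide. The reaction ran 60 min at 30 °C in pH 8 Tris buffer with 1 mM DTT, 5 μM ATP and the 545–1106 kinase-domain enzyme.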

[1] abbreviates: PDGF-R kinase activity, compound at 10 uM.
Where [2] appears, read: PDGF-R kinase activity, read-out: IC50.
[3] abbreviates: read-out: IC50 (μM) on PDGF-R kinase activity.

SMILES strings stand for the structures. Read-outs that look alike come from different tables or passages of the source.

The inhibition is the relative decrease from the control value, in per cent. As usually defined, the IC50 is the concentration that gives 50% inhibition.

T1 sequence (P09619 545-1106): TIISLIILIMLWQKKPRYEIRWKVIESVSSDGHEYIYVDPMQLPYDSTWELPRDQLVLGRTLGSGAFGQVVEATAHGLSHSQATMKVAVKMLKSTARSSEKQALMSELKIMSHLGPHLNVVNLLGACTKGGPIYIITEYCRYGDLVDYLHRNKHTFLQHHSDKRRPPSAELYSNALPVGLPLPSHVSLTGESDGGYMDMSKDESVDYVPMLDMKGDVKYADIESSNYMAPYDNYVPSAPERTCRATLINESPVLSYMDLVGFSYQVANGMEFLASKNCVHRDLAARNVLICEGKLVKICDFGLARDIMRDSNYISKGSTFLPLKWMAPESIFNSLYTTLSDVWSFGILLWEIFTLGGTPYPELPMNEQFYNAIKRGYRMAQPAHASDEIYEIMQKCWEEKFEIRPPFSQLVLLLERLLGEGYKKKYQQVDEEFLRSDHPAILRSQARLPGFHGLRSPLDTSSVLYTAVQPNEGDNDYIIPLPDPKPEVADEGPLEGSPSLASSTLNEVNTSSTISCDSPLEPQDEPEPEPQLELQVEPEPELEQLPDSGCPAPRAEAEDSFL

As for `COCCCOc1ccc2c(c1)Cc1c-2n[nH]c1Nc1cccc(F)c1` [Compound 138, (3-Fluoro-phenyl)-[6-(3-methoxy-propoxy)-2,4-dihydro-indeno[1,2-c]pyrazol-3-yl]-amine], the inhibition at 10 µM under setting [1] was found to be 79.5%. The IC50 under setting [2] worked out at 0.301 µM. Taken in the same sequence, the figures for `COc1cccc2c1Cc1c-2n[nH]c1Nc1cccnc1` [Compound 146, (5-Methoxy-2,4-dihydro-indeno[1,2-c]pyrazol-3-yl)-pyridin-3-yl-amine] were 78.5% and 0.16 µM. In the same order, the values of `Cc1ccccc1CNc1[nH]nc2c1Cc1cc(F)ccc1-2` [Compound 378, (6-Fluoro-2,4-dihydro-indeno[1,2-c]pyrazol-3-yl)-(2-methyl-benzyl)-amine] are 94.5% and 0.467 µM. As for `COc1cc2c(cc1OC)-c1n[nH]c(Nc3ncccc3C)c1C2` [Compound 587, (6,7-Dimethoxy-2,4-dihydro-indeno[1,2-c]pyrazol-3-yl)-(3-methyl-pyridin-2-yl)-amine], the inhibition at 10 µM under setting [1] worked out at 86%. Moreover, the IC50 under setting [3] was 1.7 µM. `Fc1ccc(C(F)(F)F)cc1Nc1[nH]nc2c1Cc1ccccc1-2` [Compound 340, (2,4-Dihydro-indeno[1,2-c]pyrazol-3-yl)-(2-fluoro-5-trifluoromethyl-phenyl)-amine]: the inhibition at 10 µM under setting [1] worked out at 92.5%. Besides, under setting [2], the IC50 was determined as 0.105 µM. With `COc1ccc2c(c1)-c1n[nH]c(Nc3ccc(C(F)(F)F)cc3)c1C2` [Compound 178, (7-Methoxy-2,4-dihydro-indeno[1,2-c]pyrazol-3-yl)-(4-trifluoromethyl-phenyl)-amine], under setting [1], the inhibition at 10 µM came out at 98.5%. Besides, the IC50 under setting [2] is 0.132 µM. With `CC1c2ccccc2-c2n[nH]c(Nc3cccc(F)c3)c21` (centres unmarked) [Compound 108, (3-Fluoro-phenyl)-(4-methyl-2,4-dihydro-indeno[1,2-c]pyrazol-3-yl)-amine], the inhibition at 10 µM under setting [1] turned out to be 82%. Further, the IC50 under setting [2] came to 0.3 µM. Taken in the same sequence, the figures for `COc1cc2c(cc1OC)-c1n[nH]c(NCc3ccccc3C)c1C2` [Compound 223, (6,7-Dimethoxy-2,4-dihydro-indeno[1,2-c]pyrazol-3-yl)-(2-methyl-benzyl)-amine] were 97% and 0.0459 µM. In the same order, the values of `FC(F)(F)c1cccc(Nc2[nH]nc3c2Cc2cc(Br)ccc2-3)c1` [Compound 155, (6-Bromo-2,4-dihydro-indeno[1,2-c]pyrazol-3-yl)-(3-trifluoromethyl-phenyl)-amine] are 53% and 8.11 µM. For `OCCCOc1cccc2c1Cc1c-2n[nH]c1NCc1c(F)cccc1F` [Compound 443, 3-[3-(2,6-Difluoro-benzylamino)-2,4-dihydro-indeno[1,2-c]pyrazol-5-yloxy]-propan-1-ol], under setting [1], the inhibition at 10 µM was 89.5%. Besides, under setting [2], the IC50 was found to be 0.098 µM. Taken in the same sequence, the figures for `COc1cc2c(cc1OC)-c1c(c(Nc3cccc(F)c3)nn1C(=O)COC(=O)C(C)C)C2` [Compound 474, Isobutyric acid 2-[3-(3-fluoro-phenylamino)-6,7-dimethoxy-4H-indeno[1,2-c]pyrazol-1-yl]-2-oxo-ethyl ester] were 91.5% and 0.0634 µM. With `Brc1cccc(Nc2[nH]nc3c2Cc2cc4c(cc2-3)OCO4)c1` [Compound 95, (3-Bromo-phenyl)-(2,9-dihydro-5,7-dioxa-2,3-diaza-cyclopenta[a]-s-indacen-1-yl)-amine], the inhibition at 10 µM under setting [1] turned out to be 91%. In addition, under setting [2], the IC50 amounted to 0.063 µM.

On to `CCOc1cccc(Nc2[nH]nc3c2C(C)c2cc(OC)c(OC)cc2-3)c1` (single isomer, unassigned) [Compound 569, (6,7-Dimethoxy-4-methyl-2,4-dihydro-indeno[1,2-c]pyrazol-3-yl)-(3-ethoxy-phenyl)-amine], for which the “Percent Inhibition @ 10 uM” value (PDGF-R kinase activity, compound at 10 uM, 10 µM) was 64%. The half-maximal inhibitory concentration (IC50) under setting [2] came to 5.1 µM. For `COC(=O)C(CC(C)C)NC(=O)n1nc2c(c1Nc1cccc(F)c1)Cc1cc(OC)c(OC)cc1-2` (centres unmarked) [Compound 412, 2-{[3-(3-Fluoro-phenylamino)-6,7-dimethoxy-4H-indeno[1,2-c]pyrazole-2-carbonyl]-amino}-4-methyl-pentanoic acid methyl ester], under setting [1], the inhibition at 10 µM amounted to 44%. Further, the IC50 under setting [2] was 12.7 µM.

Take `COc1cc2c(cc1OC)-c1n[nH]c(NCc3cccc(F)c3)c1C2` [Compound 327, (6,7-Dimethoxy-2,4-dihydro-indeno[1,2-c]pyrazol-3-yl)-(3-fluoro-benzyl)-amine]: the inhibition at 10 µM under setting [1] is 52%. For the same compound, under setting [2], the IC50 worked out at 10.6 µM.

On to `COc1cc2c(cc1OC)-c1n[nH]c(NCc3ccc(F)cc3F)c1C2` [Compound 328, (2,4-Difluoro-benzyl)-(6,7-dimethoxy-2,4-dihydro-indeno[1,2-c]pyrazol-3-yl)-amine], for which the inhibition at 10 µM under setting [1] was determined as 78.5%. The IC50 under setting [2] worked out at 0.697 µM. In the same order, the values of `COc1cccc2c1Cc1c-2n[nH]c1Nc1cccc(S(N)(=O)=O)c1` [Compound 418, 3-(5-Methoxy-2,4-dihydro-indeno[1,2-c]pyrazol-3-ylamino)-benzenesulfonamide] are 82.5% and 0.892 µM. In the case of `COc1ccc(Nc2[nH]nc3c2Cc2c(OC)cccc2-3)cc1` [Compound 145, (5-Methoxy-2,4-dihydro-indeno[1,2-c]pyrazol-3-yl)-(4-methoxy-phenyl)-amine], under setting [1], the inhibition at 10 µM was 48.5%. Besides, the IC50 under setting [2] came to 13.9 µM. Taken in the same sequence, the figures for `COc1ccc(Nc2[nH]nc3c2Cc2cc(Cl)ccc2-3)cc1` [Compound 189, (6-Chloro-2,4-dihydro-indeno[1,2-c]pyrazol-3-yl)-(4-methoxy-phenyl)-amine] were 92% and 0.199 µM. On to `COc1cc2c(cc1OC)-c1c(c(Nc3cccc(F)c3)nn1C(=O)c1c(F)cccc1F)C2` [Compound 480, (2,6-Difluoro-phenyl)-[3-(3-fluoro-Phenylamino)-6,7-dimethoxy-4H-indeno[1,2-c]pyrazol-1-yl]-methanone], for which the inhibition at 10 µM under setting [1] turned out to be 8%.

As to `COc1cc2c(cc1OC)-c1n[nH]c(NCc3ccccc3Cl)c1C2` [Compound 230, (2-Chloro-benzyl)-(6,7-dimethoxy-2,4-dihydro-indeno[1,2-c]pyrazol-3-yl)-amine], the inhibition at 10 µM under setting [1] was 90%. Further, under setting [2], the IC50 turned out to be 0.0019 µM. As to `CCOc1cc2c(cc1OCCCO)-c1n[nH]c(Nc3ccc(F)c(Cl)c3)c1C2` [Compound 368, 3-[3-(3-Chloro-4-fluoro-phenylamino)-6-ethoxy-2,4-dihydro-indeno[1,2-c]pyrazol-7-yloxy]-propan-1-ol], the inhibition at 10 µM under setting [1] worked out at 89.5%. Besides, the IC50 under setting [2] worked out at 0.0629 µM. Consider `COc1cc2c(cc1OC)C(C)c1c-2n[nH]c1NCc1c(Cl)cccc1Cl` (single isomer, unassigned) [Compound 586, (2,6-Dichloro-benzyl)-(6,7-dimethoxy-4-methyl-2,4-dihydro-indeno[1,2-c]pyrazol-3-yl)-amine], for which the inhibition at 10 µM under setting [1] was determined as 100%. Moreover, under setting [3], the IC50 was 0.0278 µM.

In the case of `N#Cc1ccc2c(c1)CCc1c-2n[nH]c1Nc1ccccc1` [Compound 350, 3-Phenylamino-4,5-dihydro-2H-benzo[g]indazole-7-carbonitrile], the inhibition at 10 µM under setting [1] came to 91%. For the same compound, the IC50 under setting [2] turned out to be 0.651 µM. In the same order, the values of `COc1cc2c(cc1OCC(O)CO)Cc1c-2n[nH]c1NCc1ccccc1F` (centres unmarked) [Compound 387, 3-[3-(2-Fluoro-benzylamino)-7-methoxy-2,4-dihydro-indeno[1,2-c]pyrazol-6-yloxy]-propane-1,2-diol] are 100% and 0.0116 µM. Taken in the same sequence, the figures for `COc1cc2c(cc1OC)-c1n[nH]c(Nc3ccc(S(=O)(=O)C4CCNCC4)cc3)c1C2` [Compound 221, (6,7-Dimethoxy-2,4-dihydro-indeno[1,2-c]pyrazol-3-yl)-[4-(piperidine-4-sulfonyl)-phenyl]-amine] were 71% and 1.6 µM. Taken in the same sequence, the figures for `COc1cc2c(cc1OC)-c1nn(COC(=O)C(C)(C)C)c(Nc3cccc(F)c3)c1C2` [Compound 408, 2,2-Dimethyl-propionic acid 3-(3-fluoro-phenylamino)-6,7-dimethoxy-4H-indeno[1,2-c]pyrazol-2-ylm ethyl ester] were 83% and 0.687 µM.

Regarding `COc1cc2c(cc1OCC(O)CO)Cc1c-2n[nH]c1Nc1cccc(Cl)c1` (centres unmarked) [Compound 259], the inhibition at 10 µM under setting [1] came to 93%. For the same compound, the IC50 under setting [2] came to 0.00204 µM.

For `COc1cccc(Nc2[nH]nc3c2Cc2cc(F)ccc2-3)c1` [Compound 234, (6-Fluoro-2,4-dihydro-indeno[1,2-c]pyrazol-3-yl)-(3-methoxy-phenyl)-amine], the inhibition at 10 µM under setting [1] turned out to be 101%. Moreover, the IC50 under setting [2] came to 0.358 µM.

Take `COc1cc2c(cc1OC)-c1n[nH]c(Nc3cc(F)ccc3F)c1C2` [Compound 55, (2,5-Difluoro-phenyl)-(6,7-dimethoxy-2,4-dihydro-indeno[1,2-c]pyrazol-3-yl)-amine]: the inhibition at 10 µM under setting [1] is 76%. Besides, the IC50 under setting [2] is 0.636 µM. In the same order, the values of `CN(C)CCCOc1cccc2c1Cc1c-2n[nH]c1Nc1ccc(F)cc1` [Compound 73, [5-(3-Dimethylamino-propoxy)-2,4-dihydro-indeno[1,2-c]pyrazol-3-yl]-(4-fluoro-phenyl)-amine] are around 30% and above 50 µM. On to `c1ccc(Nc2[nH]nc3c2Cc2ccccc2-3)cc1` [Compound 1], for which the inhibition at 10 µM under setting [1] came out at 91%. Further, the concentration for half-maximal inhibition (IC50) under setting [2] came to 0.317 µM. Taken in the same sequence, the figures for `COc1cc2c(cc1OC)-c1c(c(Nc3cccc(F)c3)nn1C(=O)CCC(N)=O)C2` [Compound 531, 4-[3-(3-Fluoro-phenylamino)-6,7-dimethoxy-4H-indeno[1,2-c]pyrazol-1-yl]-4-oxo-butyramide] were 90% and 0.024 µM.
